Reference: the supplement of paper PMC10307832

Tests used:
Experiment in all cases: relative viability (nuclei count vs DMSO), 5 days (fraction); higher = more cells survive
[1] = compound: CC1CC(=O)N(C2=CN=C(N=C2N1C3CCCC3)NC4=C(C=C(C=C4)C(=O)NC5CCN(CC5)C)OC)C [NPK76-II-72-1] + CCNC(=O)c1noc(-c2cc(C(C)C)c(O)cc2O)c1-c1ccc(CN2CCOCC2)cc1 [Luminespib] (partner 0.01 µM)
Procedure, shortened: (§1)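 After 5 days of treatment, lung cancer cells in 1536-well plates were fixed and stained in a single step (final 0.05% Triton X-100, 1% formaldehyde, 1 ug/ml Hoechst) and their nuclei counted on 4× images. Treatment had been applied by pin tool the day after seeding as one drug alone or as a fixed anchor-drug dose with five library-drug doses (not always all listed) in √10 steps. Relative viability is the nuclei count of treated wells divided by that of vehicle wells, and values are medians of duplicate plates.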

BI-2536 + Trametinib = compound: CC[C@@H]1C(=O)N(C)c2cnc(Nc3ccc(C(=O)NC4CCN(C)CC4)cc3OC)nc2N1C1CCCC1 [BI-2536] + CC(=O)Nc1cccc(-n2c(=O)n(C3CC3)c(=O)c3c(Nc4ccc(I)cc4F)n(C)c(=O)c(C)c32)c1 [Trametinib] (partner 0.02 µM)
Procedure, shortened: as §1

BI-2536 + Linsitinib = compound: CC[C@@H]1C(=O)N(C)c2cnc(Nc3ccc(C(=O)NC4CCN(C)CC4)cc3OC)nc2N1C1CCCC1 [BI-2536] + C[C@]1(O)C[C@@H](c2nc(-c3ccc4ccc(-c5ccccc5)nc4c3)c3c(N)nccn32)C1 [Linsitinib] (partner 1 µM)
Procedure, shortened: as §1

BI-2536 + Decitabine = compound: CC[C@@H]1C(=O)N(C)c2cnc(Nc3ccc(C(=O)NC4CCN(C)CC4)cc3OC)nc2N1C1CCCC1 [BI-2536] + Nc1ncn([C@H]2C[C@H](O)[C@@H](CO)O2)c(=O)n1 [Decitabine] (partner 2 µM)
Procedure, shortened: as §1

Row | Cell Line | relative viability ([1]; first compound 0.01 µM) | relative viability ([1]; first compound 0.03162 µM) | relative viability ([1]; first compound 0.1 µM) | relative viability ([1]; first compound 0.3162 µM) | relative viability ([1]; first compound 1 µM) | relative viability (BI-2536 + Trametinib; first compound 0.01 µM) | relative viability (BI-2536 + Trametinib; first compound 0.03162 µM) | relative viability (BI-2536 + Trametinib; first compound 0.1 µM) | relative viability (BI-2536 + Trametinib; first compound 0.3162 µM) | relative viability (BI-2536 + Trametinib; first compound 1 µM) | relative viability (BI-2536 + Linsitinib; first compound 0.01 µM) | relative viability (BI-2536 + Linsitinib; first compound 0.03162 µM) | relative viability (BI-2536 + Linsitinib; first compound 0.1 µM) | relative viability (BI-2536 + Linsitinib; first compound 0.3162 µM) | relative viability (BI-2536 + Linsitinib; first compound 1 µM) | relative viability (BI-2536 + Decitabine; first compound 0.01 µM) | relative viability (BI-2536 + Decitabine; first compound 0.03162 µM) | relative viability (BI-2536 + Decitabine; first compound 0.1 µM) | relative viability (BI-2536 + Decitabine; first compound 0.3162 µM) | relative viability (BI-2536 + Decitabine; first compound 1 µM)
1 | NCI-H1437 | 1.03 | 1.13 | 1.09 | 1.03 | 1.08 | 0.636 | 0.483 | 0.428 | 0.149 | 0.177 | 1.03 | 0.901 | 0.941 | 0.123 | 0.0942 | 0.572 | 0.573 | 0.335 | 0.229 | 0.197
2 | NCI-H1651 | 0.925 | 0.995 | 0.698 | 0.743 | 0.852 | 0.786 | 0.868 | 0.789 | 0.518 | 0.123 | 0.976 | 1.01 | 0.878 | 0.119 | 0.0863 | 0.592 | 0.627 | 0.495 | 0.12 | 0.0817
3 | NCI-H1666 | 0.977 | 1.03 | 0.987 | 0.924 | 1.06 | 0.919 | 0.914 | 0.865 | 0.49 | 0.512 | 0.86 | 0.736 | 0.762 | 0.224 | 0.276 | 0.716 | 0.68 | 0.625 | 0.411 | 0.378
4 | NCI-H1734 | 0.167 | 0.178 | 0.189 | 0.17 | 0.186 | 0.723 | 0.638 | 0.593 | 0.173 | 0.165 | 0.947 | 0.896 | 0.859 | 0.238 | 0.228 | 0.5 | 0.457 | 0.37 | 0.157 | 0.164
5 | NCI-H1755 | 0.579 | 0.563 | 0.264 | 0.371 | 0.503 | 0.78 | 0.784 | 0.689 | 0.367 | 0.363 | 1.03 | 0.992 | 0.971 | 0.455 | 0.272 | 0.689 | 0.716 | 0.642 | 0.347 | 0.379
6 | NCI-H1792 | 0.404 | 0.504 | 0.469 | 0.5 | 0.556 | 0.604 | 0.417 | 0.395 | 0.0597 | 0.0491 | 0.585 | 0.634 | 0.495 | 0.444 | 0.131 | 0.587 | 0.589 | 0.386 | 0.0865 | 0.0535
7 | NCI-H1793 | 0.144 | 0.166 | 0.203 | 0.176 | 0.201 | 0.37 | 0.435 | 0.251 | 0.177 | 0.183 | 0.939 | 0.85 | 1.03 | 0.211 | 0.205 | 0.419 | 0.509 | 0.236 | 0.198 | 0.145
8 | NCI-H1915 | 0.762 | 0.798 | 0.75 | 0.7 | 0.845 | 0.29 | 0.332 | 0.317 | 0.0844 | 0.0806 | 1.12 | 1.05 | 1.03 | 0.625 | 0.143 | 0.261 | 0.238 | 0.227 | 0.108 | 0.119
9 | NCI-H1944 | 0.743 | 0.781 | 0.722 | 0.723 | 0.807 | 0.392 | 0.427 | 0.439 | 0.144 | 0.186 | 1.35 | 1.27 | 1.17 | 1.02 | 0.283 | 0.454 | 0.444 | 0.399 | 0.168 | 0.192
10 | NCI-H1975 | 0.23 | 0.196 | 0.183 | 0.243 | 0.294 | 0.252 | 0.363 | 0.295 | 0.12 | 0.122 | 0.948 | 0.861 | 1.03 | 0.192 | 0.147 | 0.321 | 0.372 | 0.276 | 0.172 | 0.14
11 | NCI-H1993 | 0.848 | 0.87 | 0.925 | 0.764 | 0.818 | 0.448 | 0.404 | 0.56 | 0.379 | 0.398 | 0.709 | 0.637 | 0.579 | 0.528 | 0.611 | 0.61 | 0.601 | 0.436 | 0.42 | 0.405
12 | NCI-H2009 | 0.976 | 1.1 | 1.01 | 1.07 | 1.04 | 0.262 | 0.246 | 0.336 | 0.131 | 0.159 | 1.21 | 1.18 | 1.14 | 0.394 | 0.294 | 0.4 | 0.337 | 0.324 | 0.193 | 0.169
